Results on three compounds are retold here after patent publication US20260007692A1, “BIORESORBABLE ORGANIC BIOELECTRONICS” (priority 2023, published 2026).

One series deals with HLF-1. Nature of the series: MTT cell viability assay (limiting-dilution toxicity). It is filed as cell-based, human. The note with it: 1 day exposure, up to 1 mg mL^−1. The protocol:
The MTT cell viability assay was conducted to determine in vitro toxicity of A5, ETE-S and ETE-PC. Briefly, HLF-1 (2×10^4 cells well-1) were plated in a 96-well flat-bottom microplate and grown for 24 h. Cells were treated with A5, ETE-S, or ETE-PC (0-1000 μg ml^−1) for 24 h. Post-treatment, 200 μL of MTT (0.5 mg mL^−1) was added into each well and incubated at 37° C. for 4 h. After incubation, 200 μL of isopropanol was added to dissolve formazan crystals. The optical density of formazan solution, as a measure of live cells, was obtained using a microplate reader at 570 nm (Spark Cyto, Tecan). The formazan signal (live cell count) was normalized to the control samples not exposed to A5 or ETE-Rs. 3 biological and 3 technical replicates were used for each setting. Each well contained up to 200 μg of our compound (1 mg mL^−1, 200 μL) which can be compared to a typical in vivo injection of 400 ng (40 mg mL^−1, 10 nL).
In general terms: Tetrazolium dyes change colour on reduction, which living cells bring about.

Series [1] deals with T1, horseradish peroxidase (HRP) (Armoracia rusticana, UniProt P00433).
T1 construct: purchased Merck, Sigma Aldrich P8375-25KU
T1 sequence (P00433 31-338 limits assumed): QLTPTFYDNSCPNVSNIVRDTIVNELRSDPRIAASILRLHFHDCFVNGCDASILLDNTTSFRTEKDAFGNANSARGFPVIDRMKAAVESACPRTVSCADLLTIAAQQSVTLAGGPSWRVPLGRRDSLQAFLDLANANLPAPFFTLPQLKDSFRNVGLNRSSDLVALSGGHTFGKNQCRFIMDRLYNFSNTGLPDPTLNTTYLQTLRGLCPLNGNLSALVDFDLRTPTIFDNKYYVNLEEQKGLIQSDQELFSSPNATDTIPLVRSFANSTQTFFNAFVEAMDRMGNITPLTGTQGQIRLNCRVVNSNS
Nature of the series: Enzymatic polymerization of ETE-PC with HRP and H2O2. The note with it: ETE-PC 500 μg/ml, HRP 5 U/ml. It is filed as biochemical. The procedure:
A solution of ETE-PC (500 μg/ml) was prepared in DPBS (Thermo Fischer, Gibco, Cat no. 14190-250) and mixed with different concentrations of hydrogen peroxide (H2O2) (0.001-0.01%) and horseradish peroxidase (HRP) (Merck, Sigma Aldrich, P8375-25KU) (5 U/ml in DPBS) was added. The polymerization was examined by the change of colour of the ETE-PC solution from slightly yellow to black and taking absorbance at 350 nm and 780 nm to detect polymerized and unpolymerized ETE-PC. The absorbance maxima of polymerized and unpolymerized ETE-PC were determined by a wavelength scan using UV-Vis spectrophotometry by Spark Cyto (Tecan) multi-mode plate reader.

The test system of series [2] is normal human lung fibroblast (HLF-1) cells. Nature of the series: Calcein-AM cytotoxicity assessment in normal lung fibroblast. The series is classed as cell-based. The settings on record: 24 hrs. The procedure: Study of the in vitro toxicity of ETE-PC in normal human lung fibroblast (HLF-1) cells. Briefly, HLF-1 cells were seeded in 96 well plate at a density of 2×10^4 cell per well and grown for 24 hrs. Later cells were treated with various concentrations of ETE-PC (5-1000 μg/ml) for 24 hrs. Post treatment, 200 μl live cell staining dye calcein-AM (Thermo Fisher, Invitrogen, Cat no. C3100MP) (2 μM in PR free DMEM) was added to wells and incubated for 30 min followed by examination of live cells using fluorescence cell imaging (Spark Cyto cell imager, Tecan).

Series [3] is described as follows: Oxidation / redox potential of trimers and EDOT monomer. It is filed as physicochemical.

As to `C[N+](C)(C)CCOP(=O)([O-])OCCc1cc(-c2scc3c2OCCO3)sc1-c1scc2c1OCCO2` [ETE-PC], in the series with HLF-1, the cell toxicity result is listed as “neither A5 nor ETE-PC showed cell toxicity”. Also, in series [1], the “H2O2 concentration at which polymerization by HRP got saturated” value is 0.002% and the “concentration of H2O2 required for HRP mediated polymerization” value is given as 0.001%. Besides, the “morphology in phase contrast images” value in series [2] (5-1000 μg/ml) is recorded as “No detrimental change in morphology of HLF-1 cells was observed”. Further, the “calcein-AM fluorescence vs control” value in series [2] (even at 1000 μg/ml) is listed as “no change the calcein-AM fluorescence”.

As for `O=S(=O)(O)CCCCOCCc1cc(-c2scc3c2OCCO3)sc1-c1scc2c1OCCO2` [ETE-S, sodium 4-(2-(2,5-bis(2,3-dihydrothieno[3,4-b][1,4]dioxin-5-yl)thiophene-3-yl)ethoxy)butane-1-sulfonate], in the series with HLF-1, the cell toxicity entry is “some toxicity at high concentrations”.

As for `c1scc2c1OCCO2` [EDOT, 3,4-ethylenedioxythiophene], the oxidation potential in series [3] was 1.2 V.
